Data on 14 compounds can be found in US20230278958A1 (Merck Patent GmbH, priority 2020, published 2023).

The subject of one assay is YAP-TEAD interaction. The assay is described as follows: SK-HEP-1 reporter assay (8x TEAD responsive elements driving NanoLuc luciferase). It is filed as cell-based. Particulars: Homo sapiens, SK-HEP1; SK-HEP-1 TEAD-NanoLuc reporter cells, 24 hour incubation, luciferase readout. The method, then:
To identify inhibitors of YAP-TEAD interaction, 8× TEAD responsive elements driving the NanoLuc® luciferase gene were stably integrated into SK-HEP-1 cells (ECACC #: 91091816).
For the assay, cells were treated in duplicates with the test compounds in a 10-point dose, with the top concentration starting at 30 μM (final concentration in assay). After a 24 hour incubation at 37° C., 95% rH, and 5% CO2, a luciferase substrate/lysis reagent mix (NanoGlo™, Promega) was added to the cells, allowing the quantification of cellular luciferase activity.
Cell Media: The cells were cultured in the following media: MEM, +10% FBS, +1× GlutaMAX, +1 mM Sodium-Pyruvate, +100 μM Non-essential amino acids, +0.1 mg/ml Hygromycin. The media used for the assay was: MEM (w/o Phenol Red), +10% FBS, +1× GlutaMAX, +1 mM Sodium-Pyruvate, +100 μM Non-essential amino acids, +0.5% Pen/Strep
(§1) Reagents: The reagents used are listed below:
Cell culture: The cells were examined using an inverted microscope to check for health and cell density. To dissociate adherent cells, the monolayer of cells was washed once with pre-warmed PBS. After removing the PBS, 3 ml pre-warmed Accutase® was added to a F75 flask, dispersed evenly and the flask was allowed to sit in incubator for ˜4-5 minutes.
(§2) When a single cell suspension was obtained, 7 ml of prewarmed growth media was added and resuspended with the cells. The cell suspension was transferred to a sterile 15 ml conical centrifuge tube, and spun for 5 min at 300×g, RT. The supernatant was discarded and the pellet was resuspended in 10 ml of pre-warmed growth media.
(§3) The total cell count was determined, and 20 μl of the desired cell number was added to each well of a 384 well plate using a Multidrop Combi. The plates were then incubated for 24 hours at 37° C., 95% rH, and 5% CO2.
(§4) Compound treatment: 24 hours after seeding, the cells were treated with compounds.
(§5) A 1:333 dilution of compounds, diluted in DMSO, was made to get a final concentration of 0.3% DMSO per well. To transfer the compounds to the assay plate, 120 nl was shot from Labcyte low dead volume plates to the cell plates containing 20 μl media/well with the ECHO 555 liquid handling system.
(§6) After treatment, the cells were fed with 20 μl fresh pre-warmed assay media using a Multidrop combi.
The assay plates were then incubated for another 24 h at 37° C., 95% rH, and 5% CO2.
Luciferase readout: 24 h after treatment, the plates were taken out of the incubator and were allowed to equilibrate to RT. 30 μl of NanoGlo® reagent was added to the plates in the dark. Plates were shaken for 20 min on a Teleshake (˜1500 rpm) in the dark. The luminescence was then measured using an EnVision microplate reader. The IC50 values were generated using Genedata Screener®.
Experimental data in SK-HEP-1 reporter assay of the compounds shown in Table 1 are shown in Table 2 below and classified in the following groups: […]
(In general: In a reporter assay the amount or activity of a reporter protein is the signal.)

For a further assay, the system named is NCI-H226 cells. The assay is described as follows: Viability assay in NCI-H226 (Yap-dependent) cells, CyQUANT. It is filed as cell-based. Particulars: Homo sapiens, 96 hour incubation. Here is the method: The ability of YAP-TEAD inhibitors to inhibit tumor cell growth was evaluated using two different cell lines: NCI-H226, which is a YAP dependent cell line, and SW620 cells, where YAP and TAZ were knocked out using CRISPR to generate a YAP independent cell line.
For the assay, cells were treated in duplicates with the test compounds in a 10-point dose, 1:3 dilution steps, with the top concentration starting at 30 μM (final concentration in assay). After a 96 hour incubation at 37° C., 95% rH, and 5% CO2, a cell-permeant DNA-binding dye that stains only healthy cells (CyQUANT®, Promega) was added to the cells, allowing the quantification of cell viability.
Cell Media: The NCI-H226 cells were cultured in the following media: RPMI 1640, +10% FBS, +1× GlutaMAX, +10 mM HEPES, +0.5% Pen/Strep. The SW620-KO cells were cultured in the following media: DMEM/F-12, +10% FBS, +1× GlutaMAX, +10 mM HEPES, +0.5% Pen/Strep.
as §1
Cell culture: The cells were examined using an inverted microscope to check for health, cell density, etc. To dissociate adherent cells, the monolayer of cells was washed once with pre-warmed PBS. After removing the PBS, 3 ml pre-warmed Accutase was added to a F75 flask, dispersed evenly and the flask was allowed to sit in incubator for ˜4-5 minutes.
as §2, §3, §4, §5, §6
The assay plates were then incubated for 96 h at 37° C., 95% rH, and 5% CO2.
96h after treatment 30 μl of CyQuant® reagent was added to the assay plates using a Multidrop combi in the dark. The plates were then incubated for 1 hour at 37° C., 95% rH and 5% CO2. Thereafter, the assay plates were removed from the incubator and allowed to equilibrate to RT for 30 min in the dark without lid. Finally, they were measured using an EnVision microplate reader with a FITC bottom read program.
Experimental data in the Viability assay of the compounds shown in Table 1 are shown in Table 3 below and classified in the following groups: […]

pIC50: −log10 of the molar value.

Consider `Cc1ccc2c(c1)c1cc(C(=O)NC3CC3)ccc1n2-c1ccc(C(F)(F)F)cc1` [Compound 37, N-cyclopropyl-6-methyl-9-[4-(trifluoromethyl)phenyl]-9H-carbazole-3-carboxamide], for which the pIC50 (commonly −log10 of the IC50, conventionally taken in molar units) in the assay on YAP-TEAD interaction was 7.00 to 8.00. Moreover, the IC50 – broadly, the point on the concentration scale where inhibition reaches its midpoint – in the assay with NCI-H226 cells lay in the range of 0.001 to 0.1 µM.
On the same counts, the results for `Cc1ccc2c(c1)c1cc(C(=O)NCCO)ccc1n2-c1ccc(C(F)(F)F)cc1` [Compound 38, N-(2-hydroxyethyl)-6-methyl-9-[4-(trifluoromethyl)phenyl]-9H-carbazole-3-carboxamide] are 7.00 to 8.00 and 0.001 to 0.1 µM.
Regarding `Cc1ccc2c(c1)c1cc(C(=O)NC(C)CO)ccc1n2-c1ccc(C(F)(F)F)cc1` (stereo not shown) [Compound 39, N-(1-hydroxypropan-2-yl)-6-methyl-9-[4-(trifluoromethyl)phenyl]-9H-carbazole-3-carboxamide], in the assay with YAP-TEAD interaction, the pIC50 was 7.00 to 8.00. For the same compound, the IC50 with NCI-H226 cells is 0.001 to 0.1 µM.
For `Cc1ccc2c(c1)c1cc(C(=O)NCC(C)O)ccc1n2-c1ccc(C(F)(F)F)cc1` (stereo not shown) [Compound 40, N-(2-hydroxypropyl)-6-methyl-9-[4-(trifluoromethyl)phenyl]-9H-carbazole-3-carboxamide], in that order: 7.00 to 8.00 and 0.001 to 0.1 µM.
Consider `Cc1ccc2c(c1)c1cc(C(=O)NC(CO)C(C)C)ccc1n2-c1ccc(C(F)(F)F)cc1` (stereo not shown) [Compound 41, N-(1-hydroxy-3-methylbutan-2-yl)-6-methyl-9-[4-(trifluoromethyl)phenyl]-9H-carbazole-3-carboxamide], for which, in the assay on YAP-TEAD interaction, the pIC50 was 6.00 to 7.00. In the assay with NCI-H226 cells, this compound showed an IC50 of 0.1 to 1 µM.
In the assay with YAP-TEAD interaction, `CCC(CO)NC(=O)c1ccc2c(c1)c1cc(C)ccc1n2-c1ccc(C(F)(F)F)cc1` (stereo not shown) [Compound 42] showed a pIC50 of 7.00 to 8.00. Besides, the IC50 in the assay with NCI-H226 cells lay in the range of 0.001 to 0.1 µM.
Turning to `Cc1ccc2c(c1)c1cc(C(=O)NCC(C)(C)O)ccc1n2-c1ccc(C(F)(F)F)cc1` [Compound 43, N-(2-hydroxy-2-methylpropyl)-6-methyl-9-[4-(trifluoromethyl)phenyl]-9H-carbazole-3-carboxamide], the pIC50 in the assay on YAP-TEAD interaction was 6.00 to 7.00. Besides, the IC50 in the assay on NCI-H226 cells was in the range of 0.1 to 1 µM.
For `Cc1ccc2c(c1)c1cc(C(=O)NCCn3ccnc3)ccc1n2-c1ccc(C(F)(F)F)cc1` [Compound 44, 6-Methyl-9-(4-trifluoromethyl-phenyl)-9H-carbazole-3-carboxylic acid (2-imidazol-1-yl-ethyl)-amide], in that order: 6.00 to 7.00 and 0.1 to 1 µM.
Regarding `Cc1ccc2c(c1)c1cc(C(=O)NCc3nccn3C)ccc1n2-c1ccc(C(F)(F)F)cc1` [Compound 45], the negative-log IC50 (pIC50) in the assay on YAP-TEAD interaction was 6.00 to 7.00. Besides, the IC50 in the assay with NCI-H226 cells lay within 0.1 to 1 µM.
On the same counts, the results for `Cc1ccc2c(c1)c1cc(C(=O)N[C@](C)(CO)c3ccccc3)ccc1n2-c1ccc(C(F)(F)F)cc1` [Compound 46, N-[(2S)-1-hydroxy-2-phenylpropan-2-yl]-6-methyl-9-[4-(trifluoromethyl)phenyl]-9H-carbazole-3-carboxamide] are 6.00 to 7.00 and 0.1 to 1 µM.
On the same counts, the results for `CCc1ccc2c(c1)c1cc(C(=O)O)ccc1n2-c1ccc(C(F)(F)F)cc1` [Compound 47, 6-ethyl-9-[4-(trifluoromethyl)phenyl]-9H-carbazole-3-carboxylic acid] are 8.00 to 9.00 and 0.001 to 0.1 µM.
`Cc1ccc2c(c1)c1cc(C(N)=O)ccc1n2-c1ccc(C(F)(F)F)cc1` [Compound 48, 6-methyl-9-[4-(trifluoromethyl)phenyl]-9H-carbazole-3-carboxamide] had a pIC50 with YAP-TEAD interaction of 7.00 to 8.00. The compound further registered an IC50 with NCI-H226 cells of 0.1 to 1 µM.
On the same counts, the results for `Cc1ccc2c(c1)c1cc(C(=O)N3CCC(O)C3)ccc1n2-c1ccc(C(F)(F)F)cc1` (stereo not shown) [Compound 49, 1-{6-methyl-9-[4-(trifluoromethyl)phenyl]-9H-carbazole-3-carbonyl}pyrrolidin-3-ol] are 6.00 to 7.00 and 0.1 to 1 µM.
On the same counts, the results for `Cc1ccc2c(c1)c1cc(C(=O)N3CCCC(O)C3)ccc1n2-c1ccc(C(F)(F)F)cc1` (stereo not shown) [Compound 50, 1-{6-methyl-9-[4-(trifluoromethyl)phenyl]-9H-carbazole-3-carbonyl}piperidin-3-ol] are 6.00 to 7.00 and 0.1 to 1 µM.
